These results are taken from patent US10722591B2, “Cleavable conjugates of TLR7/8 agonist compounds, methods for preparation, and uses thereof” (Dynavax Technologies Corporation, priority 2017, dated 2020).

In general, pEC50 refers to the EC50 on a negative log10 scale, so that one unit is a factor of ten. Read a high pEC50 as a small EC50.

One test concerns the target T1, TLR7 (Homo sapiens, UniProt Q9NYK1).
T1 sequence (Q9NYK1 27-1049): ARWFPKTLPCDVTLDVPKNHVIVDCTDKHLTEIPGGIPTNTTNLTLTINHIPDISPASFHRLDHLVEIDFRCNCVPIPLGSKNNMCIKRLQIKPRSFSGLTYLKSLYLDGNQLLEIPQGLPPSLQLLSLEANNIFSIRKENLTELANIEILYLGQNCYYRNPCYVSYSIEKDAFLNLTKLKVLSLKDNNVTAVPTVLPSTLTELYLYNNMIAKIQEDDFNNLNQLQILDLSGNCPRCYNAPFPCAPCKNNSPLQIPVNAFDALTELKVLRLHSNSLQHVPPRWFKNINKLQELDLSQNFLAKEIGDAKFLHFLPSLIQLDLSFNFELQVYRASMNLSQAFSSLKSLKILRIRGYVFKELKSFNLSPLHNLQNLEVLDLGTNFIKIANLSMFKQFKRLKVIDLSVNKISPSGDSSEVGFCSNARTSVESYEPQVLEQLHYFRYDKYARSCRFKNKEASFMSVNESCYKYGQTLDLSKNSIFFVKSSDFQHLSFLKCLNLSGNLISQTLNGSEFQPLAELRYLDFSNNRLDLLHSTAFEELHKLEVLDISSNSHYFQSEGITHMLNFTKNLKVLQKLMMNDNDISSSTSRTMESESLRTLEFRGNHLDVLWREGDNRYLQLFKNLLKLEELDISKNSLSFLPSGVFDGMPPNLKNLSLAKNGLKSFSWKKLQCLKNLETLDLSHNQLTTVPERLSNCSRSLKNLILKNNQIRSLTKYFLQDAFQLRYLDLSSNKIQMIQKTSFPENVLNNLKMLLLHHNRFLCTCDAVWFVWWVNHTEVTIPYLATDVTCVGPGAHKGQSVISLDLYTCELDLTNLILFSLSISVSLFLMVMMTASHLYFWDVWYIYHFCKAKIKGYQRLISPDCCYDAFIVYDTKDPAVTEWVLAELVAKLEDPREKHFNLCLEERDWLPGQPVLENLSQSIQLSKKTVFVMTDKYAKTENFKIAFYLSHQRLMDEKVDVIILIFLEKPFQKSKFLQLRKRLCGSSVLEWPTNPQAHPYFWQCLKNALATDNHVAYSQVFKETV
The experiment in a line: TLR7 in vitro potency. Type of test: cell-based.

Test [1] deals with CT26 colon carcinoma. The test is described as follows: Tumor growth inhibition, weekly intratumoral doses, CT26 tumor bearing mice (Example B3). It is filed as in vivo, Balb/c mice. Particulars: intratumoral on days 8, 16, 23; 1 μg molar equivalent of IMDQ (64-53a, 64-54a) or 0.63 ug (64-10a); to day 27. The procedure:
The effect of weekly intratumoral doses of Compound No. 64-53a, Compound No. 64-54a, Compound No. 64-10a, or a PBS vehicle control on tumor growth inhibition was assessed in syngeneic CT26 colon carcinoma-bearing Balb/c mice. Compound No. 64-53a differs from Compound No. 64-53 in that it contains a monomethyl group adjacent to the disulfide cleavable linker rather than the disulfide variant. Compound No. 64-54a differs from Compound No. 64-54 in that it contains a (PEG)4 to the N-terminus of the peptide cleavable linker rather than a (PEG)12 variant. […] Compound No. 64-10a is the free amine (i.e., unconjugated) form of Compound No. 64-10, the structure of which is shown in Table 1. All in vivo procedures were conducted in accordance with approved Institutional Animal Care and Use Committee (IACUC) protocols. The animals were housed in a facility that is accredited by the Association for Accreditation and Laboratory Animal Care (AALAC, Frederick, Md.). […]
On day 0, mice were anesthetized with 1% isoflurane and 80,000 CT26 tumor cells in 200 μL of RMPI-1640 culture media plus 2.5% FBS were injected subcutaneously in the right flank. […] Tumor sizes were measured twice weekly from day 7 through day 27 with calipers, with tumor volumes calculated using the following formula: length, multiplied by width, multiplied by width, divided by 2.

Test [2] concerns interferon-related genes (TLR7-mediated gene induction). The test is described as follows: Gene expression in popliteal lymph nodes after single subcutaneous footpad injection. Type of test: in vivo, BALB/c mice. Particulars: 0.04 μg. The method, then:
(§1) Blood was drawn after 2 hours, serum samples were prepared and the IL-6, IL-12p40, and TNFα protein levels were measured by ELISA. Lower limit of quantification (LLOQ) for each of these assays was 31.3 pg/mL, and the dotted lines on graphs represent the LLOQ multiplied by serum dilution factor. Popliteal lymph nodes (draining node for the site of injection) were removed after 6 hours and stored in RNAlater (Qiagen, Hilden Del.) prior to tissue homogenization and isolation of RNA for gene expression analysis by TaqMan® using a StepOnePlus Real Time PCR system (Applied Biosystems, Foster City Calif.). Gene expression data are expressed as fold increase in gene induction relative to PBS control (mean±SEM).

For test [3], the system named is IL-6, IL-12p40, and TNFα protein levels. The experiment in a line: Serum cytokine levels by ELISA after single subcutaneous footpad injection. Type of test: in vivo, BALB/c mice. As to conditions: 2 hours after footpad injection. The method, then:
as §1
A general note: ELISA stands for enzyme-linked immunosorbent assay.

The subject of the next test is CD86. The experiment in a line: APC maturation marker CD86 by flow cytometry after subcutaneous footpad injection. It is filed as in vivo, BALB/c mice. As to conditions: 1.8 μg IMDQ molar equivalents, both hind footpads, 24 hours. The method, then:
Popliteal lymph nodes and spleens were harvested after 24 hours, and single cell suspensions were prepared for subsequent staining and analysis by flow cytometry using antibodies to cell surface markers to identify different APCs and lymphocyte cell populations.
Background: Flow cytometry measures light scatter and fluorescence of single cells or particles in a stream.

Test [4] relates to CT26 colon carcinoma. The test is described as follows: Tumor growth inhibition in combination with anti-PD-1, two contralateral CT26 tumors (Example B6). Type of test: in vivo, Balb/c mice. Particulars: 500 ng IMDQ equivalent intratumorally in combination with anti-PD-1 250 μg intraperitoneally. The method, then:
All in vivo procedures were conducted in accordance with approved Institutional Animal Care and Use Committee (IACUC) protocols. The animals were housed in a facility that is accredited by the Association for Accreditation and Laboratory Animal Care (AALAC, Frederick, Md.). Wild-type female Balb/c mice (15-20 g) were obtained from Envigo (Hayward, Calif.) and acclimated for 2-3 days prior to use. On experimental day 0, mice were anesthetized with 1% isoflurane, and 80,000 CT26 tumor cells in 200 uL of RMPI-1640 culture media plus 2.5% fetal bovine serum were injected subcutaneously in both the right and left flanks. Tumors (left and right) were allowed to grow until day 9, when the right and left flank tumor sizes had reached approximately 35 mm^3, at which point mice were injected intraperitoneally with 250 μg of anti-PD-1 antibody formulated in PBS or a PBS vehicle control. The anti-PD-1 treatments were repeated on experimental days 12, 16, 20, 23, and 28. On experimental day 15, when the right (injected) and left (distal) flank tumors had reached approximately 100 mm^3, mice were randomized into treatment groups with 10 mice per group. […] Tumor sizes were measured twice weekly from days 15 through day 30 with calipers, with tumor volumes calculated using the formula: length, multiplied by width, multiplied by width, divided by 2.

The subject of test [5] is CT26 colon carcinoma. The test is described as follows: Tumor growth inhibition, weekly intratumoral doses, CT26 tumor bearing mice (Example B4). As to conditions: 500 ng IMDQ equivalent mass intratumorally on days 9, 16, 23 and 28; single flank tumor. Type of test: in vivo, Balb/c mice. The method, then: Compound No. 64-70 is a non-cleavable variant. All in vivo procedures were conducted in accordance with approved Institutional Animal Care and Use Committee (IACUC) protocols. The animals were housed in a facility that is accredited by the Association for Accreditation and Laboratory Animal Care (AALAC, Frederick, Md.). Wild-type female Balb/c mice (15-20 g) were obtained from Envigo (Hayward, Calif.) and acclimated for 2-3 days prior to use.
On experimental day 0, mice were anesthetized with 1% isoflurane and 80,000 CT26 tumor cells in 200 μL of RMPI-1640 culture media plus 2.5% FBS were injected subcutaneously in the right flank. Tumors were allowed to grow until they were ˜50 mm^3, at which point animals were assigned to groups, 8 mice per group, to begin treatment. […] Tumor sizes were measured twice weekly from day 7 through day 30 with calipers, with tumor volumes calculated using the following formula: length, multiplied by width, multiplied by width, divided by 2.

Structures are written as SMILES. pEC50: −log10 of the molar value.

In turn, `CCCCCCCCCCCCCC(=O)NCc1ccc(Cn2c(CCCC)nc3c(N)nc4ccccc4c32)cc1` [Compound No. 64-10a, N-(4-((4-amino-2-butyl-1H-imidazo[4,5-c]quinolin-1-yl)methyl)benzyl)tetradecanamide] gave a pEC50 at TLR7 of 8.70. Also, the “in vitro and in vivo TLR7 agonist potency relative to IMDQ” value at TLR7 (data not shown) was “equal in vitro and in vivo TLR7 agonist potency to IMDQ”. The “CT26 tumor growth control compared to the vehicle control” value in the test with CT26 colon carcinoma [1] is listed as “significant CT26 tumor growth control”.

Take `CCCCc1nc2c(N)nc3ccccc3c2n1Cc1ccc(CN)cc1` [IMDQ, 1-(4-aminomethylbenzyl)-2-butyl-1H-imidazo[4,5-c]quinolin-4-amine]: in test [2], the “gene expression response in popliteal lymph nodes at the lowest dose” value was “induced gene expression”. Further, the “serum IL-12p40” value in test [3] (1 μg) is listed as “levels above background”. Further, in test [3] (5 μg), the “serum IL-6” value is given as “elevated levels”, the “serum IL-12p40” value is “elevated levels” and the “serum TNFα” value is “elevated levels”. In addition, in the test with CD86, the “expression level of APC maturation marker CD86 in popliteal lymph nodes” value is given as “induced activation/maturation of cells” and the “expression level of CD86 on APCs in the spleen” value is on record as “comparable”. Besides, in the test with CT26 colon carcinoma [4], the “tumor growth control in the injected tumor” value is recorded as “comparable improvements in tumor growth control over either agent administered individually” and the “tumor growth control in the uninjected tumor” value is listed as “comparable improvements in tumor growth control over either agent administered individually”.

As for `CCCCc1nc2c(N)nc3ccccc3c2n1Cc1ccc(CNC(=O)OCc2ccc(SCCNC(=O)CN=[N+]=[N-])cc2)cc1` [Compound No. 64-70], the “CT26 tumor growth inhibition” value with CT26 colon carcinoma [5] is “no CT26 tumor growth inhibition”.
